Test results: ChEMBL document CHEMBL5360532, “Current scenario of quinolone hybrids with potential antibacterial activity against ESKAPE pathogens” (Eur J Med Chem, 2023)
Values after ≈ are worked out from the molar mass of the structure shown. Values belong to the compound of their own block, whether it stands above or below them.

Tests used:
Assay type in all cases: functional
Escherichia coli [1] = assay: Antibacterial activity against Escherichia coli ATCC 25922 assessed as bacterial growth inhibition by agar disc diffusion assay
Escherichia coli [2] = assay: Antibacterial activity against Escherichia coli clinical isolate 1 assessed as bacterial growth inhibition by agar disc diffusion assay
Staphylococcus aureus [3] = assay: Antibacterial activity against Staphylococcus aureus ATCC 25923 assessed as bacterial growth inhibition by agar disc diffusion assay
Pseudomonas aeruginosa [4] = assay: Antibacterial activity against Pseudomonas aeruginosa clinical isolate 1 assessed as bacterial growth inhibition by agar disc diffusion assay
[5] = tested on: Fusarium oxysporum f. sp. lycopersici; assay: Antifungal activity against Fusarium oxysporum f. sp. lycopersici assessed as fungal growth inhibition measured after 7 days by agar disc diffusion assay; details: 168 h, time 7 day
Staphylococcus aureus [6] = assay: Antibacterial activity against Staphylococcus aureus clinical isolate 1 assessed as bacterial growth inhibition by agar disc diffusion assay
Pseudomonas aeruginosa [7] = assay: Antibacterial activity against Pseudomonas aeruginosa ATCC 27853 assessed as bacterial growth inhibition by agar disc diffusion assay
Alternaria = assay: Antifungal activity against Alternaria assessed as fungal growth inhibition measured after 7 days by agar disc diffusion assay; details: 168 h, time 7 day
Staphylococcus aureus [8] = assay: Antibacterial activity against methicillin resistant Staphylococcus aureus assessed as bacterial growth inhibition by agar dilution assay
Klebsiella pneumoniae [9] = assay: Antibacterial activity against Klebsiella pneumoniae assessed as bacterial growth inhibition by agar dilution assay
Staphylococcus aureus [10] = assay: Antibacterial activity against Staphylococcus aureus assessed as bacterial growth inhibition by agar dilution assay
Escherichia coli [11] = assay: Antibacterial activity against Escherichia coli ATCC 25922 assessed as bacterial growth inhibition by agar dilution assay
Acinetobacter baumannii [12] = assay: Antibacterial activity against Acinetobacter baumannii assessed as bacterial growth inhibition by agar dilution assay
Staphylococcus aureus [13] = assay: Antibacterial activity against Staphylococcus aureus ATCC 25923 assessed as bacterial growth inhibition by agar dilution assay
Pseudomonas aeruginosa [14] = assay: Antibacterial activity against Pseudomonas aeruginosa ATCC 27853 assessed as bacterial growth inhibition by agar dilution assay
Staphylococcus aureus [15] = assay: Antibacterial activity against Staphylococcus aureus ATCC 29213 assessed as bacterial growth inhibition by agar dilution assay
Staphylococcus aureus [16] = assay: Antibacterial activity against methicillin resistant Staphylococcus aureus assessed as bacterial growth inhibition measured after 24 hrs by serial dilution method
Escherichia coli [17] = assay: Antibacterial activity against Escherichia coli assessed as bacterial growth inhibition measured after 24 hrs by serial dilution method
Escherichia coli [18] = assay: Antibacterial activity against Escherichia coli assessed as bacterial growth inhibition by serial dilution method
Pseudomonas aeruginosa [19] = assay: Antibacterial activity against Pseudomonas aeruginosa assessed as bacterial growth inhibition by serial dilution method
Staphylococcus aureus [20] = assay: Antibacterial activity against Staphylococcus aureus assessed as bacterial growth inhibition by serial dilution method
Acinetobacter baumannii [21] = assay: Antibacterial activity against Acinetobacter baumannii assessed as bacterial growth inhibition by serial dilution method
Klebsiella pneumoniae [22] = assay: Antibacterial activity against Klebsiella pneumoniae assessed as bacterial growth inhibition by serial dilution method
Staphylococcus aureus [23] = assay: Antibacterial activity against vancomycin-intermediate methicillin resistant Staphylococcus aureus ATCC 700788 assessed as bacterial growth inhibition measured after 16 to 18 hrs by serial dilution method; details: time 16-18 hrs
Pseudomonas aeruginosa [24] = assay: Antibacterial activity against Pseudomonas aeruginosa assessed as zone of inhibition at 250 ug/ml by agar well diffusion assay; details: read-out: IZ
Klebsiella pneumoniae [25] = assay: Antibacterial activity against Klebsiella pneumoniae assessed as zone of inhibition at 250 ug/ml by agar well diffusion assay; details: read-out: IZ
Escherichia coli [26] = assay: Antibacterial activity against Escherichia coli assessed as zone of inhibition at 250 ug/ml by agar well diffusion assay; details: read-out: IZ
Staphylococcus aureus [27] = assay: Antibacterial activity against Staphylococcus aureus assessed as zone of inhibition at 250 ug/ml by agar well diffusion assay; details: read-out: IZ
Enterobacter cloacae = assay: Antibacterial activity against Enterobacter cloacae PTCC 1003 assessed as bacterial growth inhibition by agar dilution method
Staphylococcus aureus [28] = assay: Antibacterial activity against Staphylococcus aureus ATCC 6538p assessed as bacterial growth inhibition by agar dilution method
Bacillus subtilis = assay: Antibacterial activity against Bacillus subtilis PTCC 1023 assessed as bacterial growth inhibition by agar dilution method
Escherichia coli [29] = assay: Antibacterial activity against Escherichia coli ATCC 8739 assessed as bacterial growth inhibition by agar dilution method
Klebsiella pneumoniae [30] = assay: Antibacterial activity against Klebsiella pneumoniae ATCC 10031 assessed as bacterial growth inhibition by agar dilution method
[31] = tested on: Staphylococcus epidermidis; assay: Antibacterial activity against Staphylococcus epidermidis ATCC 12228 assessed as bacterial growth inhibition by agar dilution method
Aspergillus fumigatus = assay: Antifungal activity against Aspergillus fumigatus assessed as fungal growth inhibition by agar cup diffusion assay
Aspergillus niger = assay: Antifungal activity against Aspergillus niger assessed as fungal growth inhibition by agar cup diffusion assay
Candida albicans = assay: Antifungal activity against Candida albicans assessed as fungal growth inhibition measured after 24 hrs by agar cup diffusion assay
Staphylococcus aureus [32] = assay: Antibacterial activity against clinical isolate erythromycin/methicillin resistant Staphylococcus aureus NRS 70 assessed as bacterial growth inhibition measured after 16 to 18 hrs by serial dilution method; details: time 16-18 hrs
Staphylococcus aureus [33] = assay: Antibacterial activity against methicillin resistant Staphylococcus aureus ATCC 43300 assessed as bacterial growth inhibition measured after 16 to 18 hrs by serial dilution method; details: time 16-18 hrs
Staphylococcus aureus [34] = assay: Antibacterial activity against clinical isolate linezolid/methicillin resistant Staphylococcus aureus NRS 271 assessed as bacterial growth inhibition measured after 16 to 18 hrs by serial dilution method; details: time 16-18 hrs
Staphylococcus aureus [35] = assay: Antibacterial activity against clinical isolate oxacillin/tetracycline/methicillin resistant Staphylococcus aureus NRS 100 assessed as bacterial growth inhibition measured after 16 to 18 hrs by serial dilution method; details: time 16-18 hrs
Staphylococcus aureus [36] = assay: Antibacterial activity against clinical isolate gentamycin/methicillin resistant Staphylococcus aureus NRS 108 assessed as bacterial growth inhibition measured after 16 to 18 hrs by serial dilution method; details: time 16-18 hrs
Staphylococcus aureus [37] = assay: Antibacterial activity against fluoroquinolone/methicillin resistant Staphylococcus aureus clinical isolate 19-26 assessed as bacterial growth inhibition measured after 16 to 18 hrs by serial dilution method; details: time 16-18 hrs
Staphylococcus aureus [38] = assay: Antibacterial activity against vancomycin-intermediate methicillin resistant Staphylococcus aureus ATCC 700699 assessed as bacterial growth inhibition measured after 16 to 18 hrs by serial dilution method; details: time 16-18 hrs
Staphylococcus aureus [39] = assay: Antibacterial activity against clinical isolate aminoglycosides/tetracycline/methicillin resistant Staphylococcus aureus NRS 1 assessed as bacterial growth inhibition measured after 16 to 18 hrs by serial dilution method; details: time 16-18 hrs
Staphylococcus aureus [40] = assay: Antibacterial activity against Staphylococcus aureus Newman assessed as bacterial growth inhibition measured after 16 to 18 hrs by serial dilution method; details: time 16-18 hrs
Staphylococcus aureus [41] = assay: Antibacterial activity against fluoroquinolone/methicillin resistant Staphylococcus aureus clinical isolate 19-27 assessed as bacterial growth inhibition measured after 16 to 18 hrs by serial dilution method; details: time 16-18 hrs
Staphylococcus aureus [42] = assay: Antibacterial activity against methicillin resistant Staphylococcus aureus ATCC 33591 assessed as bacterial growth inhibition measured after 16 to 18 hrs by serial dilution method; details: time 16-18 hrs
Staphylococcus aureus [43] = assay: Antibacterial activity against fluoroquinolone/methicillin resistant Staphylococcus aureus clinical isolate 19-25 assessed as bacterial growth inhibition measured after 16 to 18 hrs by serial dilution method; details: time 16-18 hrs

SMILES: CCOP(=O)(OCC)C(NS(=O)(=O)Nc1ccc(F)cc1)c1cc2cccc(C)c2[nH]c1=O (stereo unspecified)
MIC (Escherichia coli [1]): 0.5 µg/mL (≈ 1.01 µM) | MIC (Escherichia coli [2]): 0.5 µg/mL (≈ 1.01 µM) | MIC (Staphylococcus aureus [3]): 0.5 µg/mL (≈ 1.01 µM) | MIC (Pseudomonas aeruginosa [4]): 0.5 µg/mL (≈ 1.01 µM) | MIC [5]: 0.125 µg/mL (≈ 0.251 µM) | MIC (Staphylococcus aureus [6]): 0.5 µg/mL (≈ 1.01 µM) | MIC (Pseudomonas aeruginosa [7]): 0.5 µg/mL (≈ 1.01 µM) | MIC (Alternaria): 0.125 µg/mL (≈ 0.251 µM)

SMILES: CCOC(=O)c1cn(Cc2nc3ccccc3n2Cc2ccccc2F)c2cc(Cl)c(F)cc2c1=O
MIC (Staphylococcus aureus [8]): 1 µg/mL (≈ 1.97 µM) | MIC (Klebsiella pneumoniae [9]): 1 µg/mL (≈ 1.97 µM) | MIC (Staphylococcus aureus [10]): 1 µg/mL (≈ 1.97 µM) | MIC (Escherichia coli [11]): 1 µg/mL (≈ 1.97 µM) | MIC (Acinetobacter baumannii [12]): 1 µg/mL (≈ 1.97 µM) | MIC (Staphylococcus aureus [13]): 1 µg/mL (≈ 1.97 µM) | MIC (Pseudomonas aeruginosa [14]): 1 µg/mL (≈ 1.97 µM) | MIC (Staphylococcus aureus [15]): 1 µg/mL (≈ 1.97 µM)

SMILES: COc1c(N2CCCC(N(C)C(=O)c3cccnc3)C2)c(F)cc2c(=O)c(C(=O)O)cn(C3CC3)c12 (stereo unspecified)
MIC (Staphylococcus aureus [16]): 0.078 µg/mL (≈ 0.158 µM) | MIC (Escherichia coli [17]): 0.078 µg/mL (≈ 0.158 µM)

MIC (Escherichia coli [18]): 0.039 µg/mL (≈ 0.0755 µM) | MIC (Pseudomonas aeruginosa [19]): 0.039 µg/mL (≈ 0.0755 µM) | MIC (Staphylococcus aureus [20]): 0.039 µg/mL (≈ 0.0755 µM) | MIC (Acinetobacter baumannii [21]): 0.039 µg/mL (≈ 0.0755 µM) | MIC (Klebsiella pneumoniae [22]): 0.039 µg/mL (≈ 0.0755 µM)
SMILES: Cc1ccc(/N=C(\N2CCN(c3cc4c(cc3F)c(=O)c(C(=O)O)cn4C3CC3)CC2)C(F)(F)F)cc1

SMILES: Cc1ncc([N+](=O)[O-])n1CC(C)OC(=O)c1cn(C2CC2)c2cc(N3CCNCC3)c(F)cc2c1=O (stereo unspecified)
MIC (Staphylococcus aureus [23]): ≤ 0.17 µg/mL | zone of inhibition at 250 µg/mL (Pseudomonas aeruginosa [24]): 25 mm | zone of inhibition at 250 µg/mL (Klebsiella pneumoniae [25]): 25 mm | zone of inhibition at 250 µg/mL (Escherichia coli [26]): 25 mm | zone of inhibition at 250 µg/mL (Staphylococcus aureus [27]): 25 mm

MIC (Enterobacter cloacae): 0.015 µg/mL (≈ 0.0259 µM) | MIC (Staphylococcus aureus [28]): 0.015 µg/mL (≈ 0.0259 µM) | MIC (Bacillus subtilis): 0.015 µg/mL (≈ 0.0259 µM) | MIC (Escherichia coli [29]): 0.015 µg/mL (≈ 0.0259 µM) | MIC (Klebsiella pneumoniae [30]): 0.015 µg/mL (≈ 0.0259 µM) | MIC [31]: 0.015 µg/mL (≈ 0.0259 µM)
SMILES: COc1cc(OC)nc(/N=N/N2CCN(c3cc4c(cc3F)c(=O)c(C(=O)C(C(C)=O)C(C)=O)cn4C3CC3)CC2)n1

SMILES: COC(=O)c1cn(C2CC2)c2cc(N3CCN(CC(=O)OC(C)Cn4c([N+](=O)[O-])cnc4C)CC3)c(F)cc2c1=O (stereo unspecified)
zone of inhibition at 250 µg/mL (Pseudomonas aeruginosa [24]): 19 mm | zone of inhibition at 250 µg/mL (Klebsiella pneumoniae [25]): 19 mm | zone of inhibition at 250 µg/mL (Escherichia coli [26]): 19 mm | zone of inhibition at 250 µg/mL (Staphylococcus aureus [27]): 19 mm

SMILES: CC(=O)N1CCN(c2ccc(OCC3COC(Cn4ccnc4)(c4ccc(Cl)cc4Cl)O3)cc2)CC1 (stereo unspecified) [KETOCONAZOLE]
MIC (Aspergillus fumigatus): 11.4 µg/mL (≈ 21.5 µM) | MIC (Aspergillus niger): 10.8 µg/mL (≈ 20.3 µM) | MIC (Candida albicans): 2.6 µg/mL (≈ 4.89 µM)

SMILES: COc1c(N2C[C@@H]3CCCN[C@@H]3C2)c(F)cc2c(=O)c(C(=O)O)cn(C3CC3)c12 [MOXIFLOXACIN]
MIC (Staphylococcus aureus [16]): 0.078 µg/mL (≈ 0.194 µM) | MIC (Escherichia coli [17]): 0.078 µg/mL (≈ 0.194 µM)

SMILES: CN[C@H](CC(C)C)C(=O)N[C@H]1C(=O)N[C@@H](CC(N)=O)C(=O)N[C@H]2C(=O)N[C@H]3C(=O)N[C@H](C(=O)N[C@H](C(=O)O)c4cc(O)cc(O)c4-c4cc3ccc4O)[C@H](O)c3ccc(c(Cl)c3)Oc3cc2cc(c3O[C@@H]2O[C@H](CO)[C@@H](O)[C@H](O)[C@H]2O[C@H]2C[C@](C)(N)[C@H](O)[C@H](C)O2)Oc2ccc(cc2Cl)[C@H]1O [VANCOMYCIN]
MIC (Staphylococcus aureus [32]): 0.78 µg/mL (≈ 0.538 µM) | MIC (Staphylococcus aureus [33]): 0.78 µg/mL (≈ 0.538 µM) | MIC (Staphylococcus aureus [34]): 0.78 µg/mL (≈ 0.538 µM) | MIC (Staphylococcus aureus [35]): 0.78 µg/mL (≈ 0.538 µM) | MIC (Staphylococcus aureus [36]): 0.78 µg/mL (≈ 0.538 µM) | MIC (Staphylococcus aureus [37]): 0.78 µg/mL (≈ 0.538 µM) | MIC (Staphylococcus aureus [38]): 0.78 µg/mL (≈ 0.538 µM) | MIC (Staphylococcus aureus [23]): 0.78 µg/mL (≈ 0.538 µM) | MIC (Staphylococcus aureus [39]): 0.78 µg/mL (≈ 0.538 µM) | MIC (Staphylococcus aureus [40]): 0.78 µg/mL (≈ 0.538 µM) | MIC (Staphylococcus aureus [41]): 0.78 µg/mL (≈ 0.538 µM) | MIC (Staphylococcus aureus [42]): 0.78 µg/mL (≈ 0.538 µM) | MIC (Staphylococcus aureus [43]): 0.78 µg/mL (≈ 0.538 µM)
